This assay deals with Salmonella enterica strain AMC (ATCC #6539). Kind of assay: Antibacterial MIC assay (Promega BacTiter-Glo microbial cell viability assay). It is filed as cell-based. How it is done:
(§1) The minimum inhibitory concentrations (MICs) are determined using the Promega Bac Titer-Glo microbial cell viability assay, which measures cell viability by quantitation of ATP present, an indicator of metabolic activity of cells. The assays are carried out using Salmonella enterica strain AMC (ATCC #6539), Inocula of S. enterica are prepared from 12-h broth cultures grown in Mueller Hinton broth and the suspensions were then adjusted to a turbidity of 0.5 McFarland. […] Bacterial cells are treated with hunanamycin analogs for 24 hours at ranges from 0.4 to 40 μg/mL and ciprofloxacin as a control ranging from 0.03 to 10 μg/mL. The OD600 is measured using an Envision multi-modal plate reader (Perkin-Elmer, Inc.).
as §1, with “(MICs) were” for “(MICs) are”, “assays were” for “assays are”, “enterica were” for “enterica are”, “cells were” for “cells are”, “OD600 was” for “OD600 is”, “Inc.). The antibiotic assays were performed in Prof. John B. MacMillan's lab, Department of Biochemistry, University of Texas Southwestern Medical Center at Dallas, USA.” for “Inc.).”

[1] abbreviates: S. enterica AMC ATCC #6539, 24 hours treatment, 0.4 to 40 μg/mL, Mueller Hinton broth, Table 1 in Example 9.
The mark [2] stands for this setting: Salmonella enterica, ATCC6539, S. enterica AMC ATCC #6539, 24 hours treatment, 0.4 to 40 μg/mL, Mueller Hinton broth, Table 1 in description, read-out: MIC.

Experimental findings from patent US11002524B2, “Cyclic compounds and process for the preparation thereof” (Council of Scientific & Industrial Research, priority 2016, dated 2021) are described below.

Values after ≈ are worked out from the molar mass of the structure shown. Like-named read-outs stand apart in the source and are kept apart here. Some results are limits rather than exact numbers.

Regarding `Cc1cc2[nH]c(=O)c(=O)n(C[C@H](O)[C@H](O)[C@H](O)CO)c2cc1C` [Compound 2, 6,7-dimethyl-1-((2S,3S,4R)-2,3,4,5-tetrahydroxypentyl)-1,4-dihydroquinoxaline-2,3-dione], the “MIC” value is above 32 µg/mL under setting [1] and above 32 µg/mL under setting [2].

On to `CC(C)=CCn1c(=O)c(=O)n(C[C@H](O)[C@H](O)[C@H](O)CO)c2cc(C)c(C)cc21` [Compound 3, 6,7-dimethyl-1-(3-methylbut-2-en-1-yl)-4-((2S,3S,4R)-2,3,4,5-tetrahydroxypentyl)-1,4-dihydroquinoxaline-2,3-dione], for which the “MIC” value by setting is: under setting [1], 16 µg/mL (≈ 40.8 µM); under setting [2], 16 µg/mL (≈ 40.8 µM).

For the compound `C=CCn1c(=O)c(=O)n(C[C@H](O)[C@H](O)[C@H](O)CO)c2cc(C)c(C)cc21` [Compound 4, 1-allyl-6,7-dimethyl-4-((2S,3S,4R)-2,3,4,5-tetrahydroxypentyl)-1,4-dihydroquinoxaline-2,3-dione], the minimum inhibitory concentration (MIC) stood at 16 µg/mL (≈ 43.9 µM) under setting [1] and 16 µg/mL (≈ 43.9 µM) under setting [2].

As for `CCn1c(=O)c(=O)n(C[C@H](O)[C@H](O)[C@H](O)CO)c2cc(C)c(C)cc21` [Compound 5, 1-ethyl-6,7-dimethyl-4-((2S,3S,4R)-2,3,4,5-tetrahydroxypentyl)-1,4-dihydroquinoxaline-2,3-dione], the “MIC” value reads like this: under setting [1], above 32 µg/mL; under setting [2], above 32 µg/mL.

For the compound `Cc1cc2c(cc1C)n(C[C@H](O)[C@H](O)[C@H](O)CO)c(=O)c(=O)n2CC=C1CCCCC1` [Compound 6, 1-(2-cyclohexylideneethyl)-6,7-dimethyl-4-((2S,3S,4R)-2,3,4,5-tetrahydroxypentyl)-1,4-dihydroquinoxaline-2,3-dione], the minimal inhibitory concentration (MIC) by setting is: under setting [1], above 32 µg/mL; under setting [2], above 32 µg/mL.

With `CCOC(=O)Cn1c(=O)c(=O)n(C[C@H](O)[C@H](O)[C@H](O)CO)c2cc(C)c(C)cc21` [Compound 7, ethyl 2-(6,7-dimethyl-2,3-dioxo-4-((2S,3S,4R)-2,3,4,5-tetrahydroxypentyl)-3,4-dihydroquinoxalin-1(2H)-yl)acetate], the minimum inhibitory concentration (MIC) reads like this: under setting [1], 16 µg/mL (≈ 39 µM); under setting [2], 16 µg/mL (≈ 39 µM).

Regarding `Cc1cc2c(cc1C)n(C[C@H](O)[C@H](O)[C@H](O)CO)c(=O)c(=O)n2Cc1ccccc1` [Compound 8, 1-benzyl-6,7-dimethyl-4-((2S,3S,4R)-2,3,4,5-tetrahydroxypentyl)-1,4-dihydroquinoxaline-2,3-dione], the minimum inhibitory concentration (MIC) by setting is: under setting [1], above 32 µg/mL; under setting [2], above 32 µg/mL.

For `Cc1cc2c(cc1C)n(C[C@H](O)[C@H](O)[C@H](O)CO)c(=O)c(=O)n2CCC1CCCCC1` [Compound 10, 1-(2-cyclohexylethyl)-6,7-dimethyl-4-((2S,3S,4R)-2,3,4,5-tetrahydroxypentyl)-1,4-dihydroquinoxaline-2,3-dione], the minimum inhibitory concentration (MIC) under setting [1] came out at 8 µg/mL (≈ 18.4 µM) and the minimal inhibitory concentration (MIC) under setting [2] was 8 µg/mL (≈ 18.4 µM).

For `Cc1cc2c3c(c1C)C(C)(C)CCn3c(=O)c(=O)n2C[C@H](O)[C@H](O)[C@H](O)CO` [Huanamycin A, 7,7,8,9-tetramethyl-1-((2S,3S,4R)-2,3,4,5-tetrahydroxypentyl)-6,7-dihydro-1H,5H-4l4,41l5-4,41-methanopyrido[3,2,1-ij]quinoxaline-2,3-dione, reference compound], the minimum inhibitory concentration (MIC) turned out to be 8 µg/mL (≈ 20.4 µM) under setting [1] and 8 µg/mL (≈ 20.4 µM) (Salmonella enterica, ATCC6539, 24 h).
